Experimental data taken from PubChem BioAssay (NCI).
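Protocol summary: plate cells (96-well), add compound at 5 concentrations, incubate 48 h, interpolate endpoints linearly. GI50 = concentration required for 50% inhibition of growth. TGI: concentration producing complete growth inhibition.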

Assays:
Assay in all cases: growth of human tumour cells (NCI), 48 h
HCT-116 colon = tested on: HCT-116 colon
CCRF-CEM leukemia = tested on: CCRF-CEM leukemia
NCI-H226 lung = tested on: NCI-H226 lung
HOP-92 NSCLC = tested on: HOP-92 NSCLC
UO-31 renal = tested on: UO-31 renal
MALME-3M melanoma = tested on: MALME-3M melanoma
ACHN renal = tested on: ACHN renal
A498 renal = tested on: A498 renal
HCT-15 colon = tested on: HCT-15 colon
KM12 colon = tested on: KM12 colon

In the case of COc1cc2cc(Oc3ccc(NC(=O)Nc4ccc(Cl)c(C(F)(F)F)c4)cc3)c(C)nc2cc1OC, the GI50 (HCT-116 colon) is reported as 0.994 µM, the TGI (HCT-116 colon) is reported as 3.84 µM and the GI50 (CCRF-CEM leukemia) is reported as 1.01 µM. The TGI (CCRF-CEM leukemia) was 3.09 µM, the GI50 (NCI-H226 lung) was 1.27 µM and the TGI (NCI-H226 lung) was 5.01 µM. It also gave a GI50 (HOP-92 NSCLC) of 0.682 µM, a TGI (HOP-92 NSCLC) of 2.05 µM and a GI50 (UO-31 renal) of 0.924 µM. The TGI (UO-31 renal) was 2.38 µM, the GI50 (MALME-3M melanoma) was 1.33 µM and the TGI (MALME-3M melanoma) was 5.71 µM. It also gave a GI50 (ACHN renal) of 1.07 µM, a TGI (ACHN renal) of 4 µM and a GI50 (A498 renal) of 0.754 µM. The TGI (A498 renal) was 3.32 µM, the GI50 (HCT-15 colon) was 1.15 µM and the TGI (HCT-15 colon) was 4.86 µM. For the same compound, the GI50 (KM12 colon) was 1.07 µM and the TGI (KM12 colon) was 3.85 µM.
For COC(=O)/C(=C/c1ccc(OC)cc1)NC(=O)c1ccccc1, the TGI (HCT-116 colon) was > 100 µM, the TGI (CCRF-CEM leukemia) was > 100 µM and the TGI (NCI-H226 lung) was > 100 µM. For the same compound, the TGI (HOP-92 NSCLC) was > 100 µM, the TGI (UO-31 renal) was > 100 µM and the TGI (MALME-3M melanoma) was > 100 µM. For the same compound, the TGI (ACHN renal) was > 100 µM, the TGI (A498 renal) was > 100 µM and the TGI (HCT-15 colon) was > 100 µM. For the same compound, the TGI (KM12 colon) was > 100 µM.
N[C@@H]1CCCC[C@@H]1N.O=C([O-])CN(CP(=O)([O-])[O-])CP(=O)([O-])[O-].[Pt+2] was tested, and the GI50 (HCT-116 colon) was > 100 µM, the TGI (HCT-116 colon) was > 100 µM and the GI50 (CCRF-CEM leukemia) was 29 µM. The TGI (CCRF-CEM leukemia) was 93.4 µM, the GI50 (NCI-H226 lung) was > 100 µM and the TGI (NCI-H226 lung) was > 100 µM. The GI50 (HOP-92 NSCLC) was > 100 µM, the TGI (HOP-92 NSCLC) was > 100 µM and the GI50 (UO-31 renal) was > 100 µM. For the same compound, the TGI (UO-31 renal) was > 100 µM, the GI50 (MALME-3M melanoma) was > 100 µM and the TGI (MALME-3M melanoma) was > 100 µM. The GI50 (ACHN renal) was > 100 µM, the TGI (ACHN renal) was > 100 µM and the GI50 (A498 renal) was > 100 µM. The TGI (A498 renal) was > 100 µM, the GI50 (HCT-15 colon) was > 100 µM and the TGI (HCT-15 colon) was > 100 µM. The GI50 (KM12 colon) was > 100 µM and the TGI (KM12 colon) was > 100 µM.
N#CC(C(=N/NC(N)=S)/C(=N/NC(N)=S)C(C#N)c1ccc(Cl)cc1)c1ccc(Cl)cc1 (stereo not given) was tested, and the TGI (HCT-116 colon) was > 100 µM, the TGI (CCRF-CEM leukemia) was 97.9 µM and the TGI (NCI-H226 lung) was > 100 µM. For the same compound, the TGI (HOP-92 NSCLC) was > 100 µM, the TGI (UO-31 renal) was > 100 µM and the TGI (MALME-3M melanoma) was > 100 µM. For the same compound, the TGI (ACHN renal) was > 100 µM, the TGI (A498 renal) was > 100 µM and the TGI (HCT-15 colon) was > 100 µM. For the same compound, the TGI (KM12 colon) was > 100 µM.
For C[C@]12C3CC[C@@]4(CO)C[C@]3(CCC1[C@](C)(C(=O)O)CC[C@@H]2O)CC4=O (stereo not given in full), the GI50 (HCT-116 colon) was > 100 µM, the TGI (HCT-116 colon) was > 100 µM and the GI50 (CCRF-CEM leukemia) was > 100 µM. For the same compound, the TGI (CCRF-CEM leukemia) was > 100 µM, the GI50 (NCI-H226 lung) was > 100 µM and the TGI (NCI-H226 lung) was > 100 µM. For the same compound, the GI50 (HOP-92 NSCLC) was > 100 µM, the TGI (HOP-92 NSCLC) was > 100 µM and the GI50 (UO-31 renal) was > 100 µM. For the same compound, the TGI (UO-31 renal) was > 100 µM, the GI50 (MALME-3M melanoma) was > 100 µM and the TGI (MALME-3M melanoma) was > 100 µM. For the same compound, the GI50 (ACHN renal) was > 100 µM, the TGI (ACHN renal) was > 100 µM and the GI50 (A498 renal) was > 100 µM. For the same compound, the TGI (A498 renal) was > 100 µM, the GI50 (HCT-15 colon) was > 100 µM and the TGI (HCT-15 colon) was > 100 µM. The GI50 (KM12 colon) was > 100 µM and the TGI (KM12 colon) was > 100 µM.
With O=C(CNc1ncco1)Nc1ccc(S(=O)(=O)c2ccc(NC(=O)CNc3ncco3)cc2)cc1 the GI50 (HCT-116 colon) was 1.42 µM, the TGI (HCT-116 colon) was 2.98 µM and the GI50 (CCRF-CEM leukemia) was 1.08 µM. The TGI (CCRF-CEM leukemia) was 5.91 µM, the GI50 (NCI-H226 lung) was 2.32 µM and the TGI (NCI-H226 lung) was 7.09 µM. For the same compound, the GI50 (HOP-92 NSCLC) was 3.37 µM, the TGI (HOP-92 NSCLC) was 13 µM and the GI50 (UO-31 renal) was 3.03 µM. For the same compound, the TGI (UO-31 renal) was 17.3 µM, the GI50 (MALME-3M melanoma) was 2.12 µM and the TGI (MALME-3M melanoma) was 4.56 µM. It also gave a GI50 (ACHN renal) of 2.23 µM, a TGI (ACHN renal) of 6.23 µM and a GI50 (A498 renal) of 21.8 µM. It also gave a TGI (A498 renal) of 62.7 µM, a GI50 (HCT-15 colon) of 1.47 µM and a TGI (HCT-15 colon) of 5.44 µM. It also gave a GI50 (KM12 colon) of 1.74 µM and a TGI (KM12 colon) of 3.43 µM.
In the case of COc1cc(NCc2ccccc2O)c2ncccc2c1, the GI50 (HCT-116 colon) is reported as 16.6 µM, the TGI (HCT-116 colon) is reported as 63.4 µM and the GI50 (CCRF-CEM leukemia) is reported as 17 µM. For the same compound, the TGI (CCRF-CEM leukemia) was > 100 µM, the GI50 (NCI-H226 lung) was 20.8 µM and the TGI (NCI-H226 lung) was > 100 µM. It also gave a GI50 (HOP-92 NSCLC) of 3.83 µM, a TGI (HOP-92 NSCLC) of 30.3 µM and a GI50 (UO-31 renal) of 7.17 µM. For the same compound, the TGI (UO-31 renal) was 75.8 µM, the GI50 (MALME-3M melanoma) was 14 µM and the TGI (MALME-3M melanoma) was 44.4 µM. The GI50 (ACHN renal) was 26.8 µM, the TGI (ACHN renal) was > 100 µM and the GI50 (A498 renal) was 13.2 µM. For the same compound, the TGI (A498 renal) was 60.5 µM, the GI50 (HCT-15 colon) was 7.09 µM and the TGI (HCT-15 colon) was > 100 µM. The GI50 (KM12 colon) was 22.5 µM and the TGI (KM12 colon) was > 100 µM.
With Cc1cccc(C)c1NC(=O)CCC(=O)NC(N)=S the TGI (HCT-116 colon) was > 100 µM, the TGI (CCRF-CEM leukemia) was > 100 µM and the TGI (NCI-H226 lung) was > 100 µM. The TGI (HOP-92 NSCLC) was > 100 µM, the TGI (UO-31 renal) was > 100 µM and the TGI (MALME-3M melanoma) was > 100 µM. For the same compound, the TGI (ACHN renal) was > 100 µM, the TGI (A498 renal) was > 100 µM and the TGI (HCT-15 colon) was > 100 µM. The TGI (KM12 colon) was > 100 µM.
In the case of C=C1CC2(CCCC3(CC(=C)C(=O)O3)C2(C)C)OC1=O (stereo not given), the TGI (HCT-116 colon) is reported as 5.22 µM, the TGI (CCRF-CEM leukemia) is reported as 5.74 µM and the TGI (NCI-H226 lung) is reported as 6.57 µM. The TGI (HOP-92 NSCLC) was 19.3 µM, the TGI (UO-31 renal) was 9.53 µM and the TGI (MALME-3M melanoma) was 3.61 µM. For the same compound, the TGI (ACHN renal) was 2.4 µM, the TGI (A498 renal) was 41.9 µM and the TGI (HCT-15 colon) was 1.99 µM. The TGI (KM12 colon) was 21.8 µM.
Work on CCCCCCC#CC#Cc1cccc(=O)o1 yielded a GI50 (HCT-116 colon) of 0.985 µM, a TGI (HCT-116 colon) of 2.34 µM and a GI50 (CCRF-CEM leukemia) of 0.265 µM. For the same compound, the TGI (CCRF-CEM leukemia) was > 19.8 µM, the GI50 (NCI-H226 lung) was 2.07 µM and the TGI (NCI-H226 lung) was 4.7 µM. The GI50 (HOP-92 NSCLC) was 3.24 µM, the TGI (HOP-92 NSCLC) was 8.92 µM and the GI50 (UO-31 renal) was 3.26 µM. For the same compound, the TGI (UO-31 renal) was > 27.4 µM, the GI50 (MALME-3M melanoma) was 1.56 µM and the TGI (MALME-3M melanoma) was 3.79 µM. For the same compound, the GI50 (ACHN renal) was 1.84 µM, the TGI (ACHN renal) was 3.96 µM and the GI50 (A498 renal) was 14.9 µM. The TGI (A498 renal) was 29.1 µM, the GI50 (HCT-15 colon) was 1.67 µM and the TGI (HCT-15 colon) was 3.64 µM. It also gave a GI50 (KM12 colon) of 3.83 µM and a TGI (KM12 colon) of 14.3 µM.
With C1=C(c2ccccc2)SC=C(c2ccccc2)S1 the TGI (HCT-116 colon) was > 100 µM, the TGI (CCRF-CEM leukemia) was > 100 µM and the TGI (NCI-H226 lung) was 81.8 µM. For the same compound, the TGI (HOP-92 NSCLC) was > 100 µM, the TGI (UO-31 renal) was > 100 µM and the TGI (MALME-3M melanoma) was > 100 µM. The TGI (ACHN renal) was > 100 µM, the TGI (A498 renal) was > 100 µM and the TGI (HCT-15 colon) was > 100 µM. For the same compound, the TGI (KM12 colon) was > 100 µM.
